Test results published in patent publication US20200131196A1 (Mount Tam Therapeutics, Inc., priority 2017, published 2020).
Read-outs that look alike come from different tables or passages of the source.

Legend:
Assay type in all cases: cell-based, human
[1] = tested on: CRO-AP2; assay: OncoPanel cell proliferation assay, CRO-AP2
Description: (§1) Cells were grown in RPMI 1640, 10% FBS, 2 mM L-alanyl-L-glutamine, 1 mM Na pyruvate, or a special medium. Cells were seeded into 384-well plates and incubated in a humidified atmosphere of 5% CO2 at 37° C. Compounds were added the day following cell seeding. At the same time, a time zero untreated cell plate was generated. After a 3-day incubation period, cells were fixed and stained to allow fluorescence imaging of nuclei. Compounds (1 mM stock solutions) were serially diluted in half-log steps from the highest test concentration ([…]), and assayed over 10 concentrations with a maximum assay concentration of 0.1% DMSO. Automated fluorescence microscopy was carried out using a Molecular Devices ImageXpress Micro XL high-content imager, and images were collected with a 4× objective. 16-bit TIFF images were acquired and analyzed with MetaXpress 5.1.0.41 software.
(§2) Cell proliferation was measured by the fluorescence intensity of an incorporated nuclear dye. The output is referred to as the relative cell count, where the measured nuclear intensity is transformed to percent of control (POC) using the following formula: […]
(§3) Cellular response parameters were calculated using nonlinear regression to a sigmoidal single-site dose response model:
(§4) EC50 is the test compound concentration at the curve inflection point or half the effective response (parameter C of the fitted curve solution). GI50 is the concentration needed to reduce the observed growth by half (midway between the curve maximum and the time zero value). “Cell Count Activity Area” is an estimate of the integrated area above the curve (Barretina, et al. The Cancer Cell Line Encyclopedia enables predictive modelling of anticancer drug sensitivity. Nature 483: 603-607). […] In rare instances, values <0 or >10 may be observed. […] Curve-fitting, calculations, and report generation was performed using a custom data reduction engine and MathIQ based software (AIM).

[2] = tested on: RL95-2; assay: OncoPanel cell proliferation assay, RL95-2
Description: as §1, §2, §3, §4

[3] = tested on: CaOV3; assay: OncoPanel cell proliferation assay, CaOV3
Description: as §1, §2, §3, §4

[4] = tested on: DMS114; assay: OncoPanel cell proliferation assay, DMS114
Description: as §1, with “Cells” for “Cells were grown in RPMI 1640, 10% FBS, 2 mM L-alanyl-L-glutamine, 1 mM Na pyruvate, or a special medium. Cells”
as §2, §3
GI50 is the concentration needed to reduce the observed growth by half (midway between the curve maximum and the time zero value). […] In rare instances, values <0 or >10 may be observed. […] Curve-fitting, calculations, and report generation was performed using a custom data reduction engine and MathIQ based software (AIM).

[5] = tested on: SNU-C2B; assay: OncoPanel cell proliferation assay, SNU-C2B
Description: as §1, §2, §3, §4

[6] = tested on: SCaBER; assay: OncoPanel cell proliferation assay, SCaBER
Description: as §1, §2, §3, §4

[7] = tested on: U-87 MG; assay: OncoPanel cell proliferation assay, U-87 MG
Description: as §1, §2, §3, §4

[8] = Homo sapiens, read-out: Cell Count EC50
[9] = Homo sapiens, read-out: Cell Count GI50
[10] = Homo sapiens, read-out: Cell Count IC50

Structure (SMILES): CO[C@H]1C[C@@H]2CC[C@@H](C)[C@@](O)(O2)C(=O)C(=O)N2CCCC[C@H]2C(=O)O[C@H]([C@H](C)C[C@H]2C[C@H]3C[C@@H]2C[C@@H]3O)CC(=O)[C@H](C)/C=C(\C)[C@@H](O)[C@@H](OC)C(=O)[C@H](C)C[C@H](C)/C=C/C=C/C=C/1C [Formula II, C37-[(1R,2S,4R,5S)-5-hyhroxybicyclo[2.2.1]heptane] rapamycin]
- Cell Count Activity Area [1]: 4.89
- Relative cell count (%) Mean ([1]; 1.00E+00 microM): 24.8%
- Relative cell count (%) Mean ([1]; 1.00E-01 microM): 27.5%
- Relative cell count (%) Mean ([1]; 1.00E-02 microM): 34.9%
- Relative cell count (%) Mean ([1]; 1.00E-03 microM): 65.3%
- Relative cell count (%) Mean ([1]; 1.01E-04 microM): 100.6%
- Relative cell count (%) Mean ([1]; 3.16E-01 microM): 24.7%
- Relative cell count (%) Mean ([1]; 3.17E-02 microM): 27.0%
- Relative cell count (%) Mean ([1]; 3.17E-03 microM): 47.3%
- Relative cell count (%) Mean ([1]; 3.18E-04 microM): 81.8%
- Relative cell count (%) Mean ([1]; 3.18E-05 microM): 98.0%
- EC50 [1, 8]: 1.07 nM
- GI50 [1, 9]: 1.65 nM
- IC50 [1, 10]: 2.21 nM
- Cell Count Activity Area [2]: 3.36
- Relative cell count (%) Mean ([2]; 1.00E+00 microM): 48.1%
- Relative cell count (%) Mean ([2]; 1.00E-01 microM): 51.9%
- Relative cell count (%) Mean ([2]; 1.00E-02 microM): 61.8%
- Relative cell count (%) Mean ([2]; 1.00E-03 microM): 69.2%
- Relative cell count (%) Mean ([2]; 1.01E-04 microM): 91.3%
- Relative cell count (%) Mean ([2]; 3.16E-01 microM): 51.5%
- Relative cell count (%) Mean ([2]; 3.17E-02 microM): 53.8%
- Relative cell count (%) Mean ([2]; 3.17E-03 microM): 62.6%
- Relative cell count (%) Mean ([2]; 3.18E-04 microM): 78.8%
- Relative cell count (%) Mean ([2]; 3.18E-05 microM): 95.1%
- EC50 [2, 8]: 0.645 nM
- GI50 [2, 9]: 1.18 nM
- IC50 [2, 10]: > 1000 nM
- Cell Count Activity Area [3]: 2.53
- Relative cell count (%) Mean ([3]; 1.00E+00 microM): 57.7%
- Relative cell count (%) Mean ([3]; 1.00E-01 microM): 63.1%
- Relative cell count (%) Mean ([3]; 1.00E-02 microM): 73.9%
- Relative cell count (%) Mean ([3]; 1.00E-03 microM): 76.4%
- Relative cell count (%) Mean ([3]; 1.01E-04 microM): 98.2%
- Relative cell count (%) Mean ([3]; 3.16E-01 microM): 60.5%
- Relative cell count (%) Mean ([3]; 3.17E-02 microM): 64.6%
- Relative cell count (%) Mean ([3]; 3.17E-03 microM): 78.3%
- Relative cell count (%) Mean ([3]; 3.18E-04 microM): 76.6%
- Relative cell count (%) Mean ([3]; 3.18E-05 microM): 97.5%
- EC50 ([3]; Homo sapiens, Caov-3, read-out: Cell Count EC50): 1.59 nM
- GI50 ([3]; Homo sapiens, Caov-3, read-out: Cell Count GI50): 47.7 nM
- IC50 ([3]; Homo sapiens, Caov-3, read-out: Cell Count IC50): > 1000 nM
- Cell Count Activity Area [4]: 3.40
- Relative cell count (%) Mean ([4]; 1.00E+00 microM): 43.1%
- Relative cell count (%) Mean ([4]; 1.00E-01 microM): 50.1%
- Relative cell count (%) Mean ([4]; 1.00E-02 microM): 62.2%
- Relative cell count (%) Mean ([4]; 1.00E-03 microM): 74.7%
- Relative cell count (%) Mean ([4]; 1.01E-04 microM): 102.9%
- Relative cell count (%) Mean ([4]; 3.16E-01 microM): 46.7%
- Relative cell count (%) Mean ([4]; 3.17E-02 microM): 52.5%
- Relative cell count (%) Mean ([4]; 3.17E-03 microM): 63.9%
- Relative cell count (%) Mean ([4]; 3.18E-04 microM): 83.4%
- Relative cell count (%) Mean ([4]; 3.18E-05 microM): 99.7%
- EC50 ([4]; Homo sapiens, DMS-114, read-out: Cell Count EC50): 1.34 nM
- GI50 ([4]; Homo sapiens, DMS-114, read-out: Cell Count GI50): 0.611 nM
- IC50 ([4]; Homo sapiens, DMS-114, read-out: Cell Count IC50): 33.1 nM
- Cell Count Activity Area [5]: 2.73
- Relative cell count (%) Mean ([5]; 1.00E+00 microM): 74.9%
- Relative cell count (%) Mean ([5]; 1.00E-01 microM): 76.2%
- Relative cell count (%) Mean ([5]; 1.00E-02 microM): 79.1%
- Relative cell count (%) Mean ([5]; 1.00E-03 microM): 74.1%
- Relative cell count (%) Mean ([5]; 1.01E-04 microM): 97.1%
- Relative cell count (%) Mean ([5]; 3.16E-01 microM): 66.6%
- Relative cell count (%) Mean ([5]; 3.17E-02 microM): 69.5%
- Relative cell count (%) Mean ([5]; 3.17E-03 microM): 76.3%
- Relative cell count (%) Mean ([5]; 3.18E-04 microM): 88.6%
- Relative cell count (%) Mean ([5]; 3.18E-05 microM): 106.6%
- EC50 [5, 8]: 0.179 nM
- GI50 [5, 9]: 3.16 nM
- IC50 [5, 10]: > 1000 nM
- Cell Count Activity Area [6]: 4.82
- Relative cell count (%) Mean ([6]; 1.00E+00 microM): 32.7%
- Relative cell count (%) Mean ([6]; 1.00E-01 microM): 44.5%
- Relative cell count (%) Mean ([6]; 1.00E-02 microM): 42.2%
- Relative cell count (%) Mean ([6]; 1.00E-03 microM): 56.1%
- Relative cell count (%) Mean ([6]; 1.01E-04 microM): 83.1%
- Relative cell count (%) Mean ([6]; 3.16E-01 microM): 36.3%
- Relative cell count (%) Mean ([6]; 3.17E-02 microM): 39.5%
- Relative cell count (%) Mean ([6]; 3.17E-03 microM): 50.7%
- Relative cell count (%) Mean ([6]; 3.18E-04 microM): 63.5%
- Relative cell count (%) Mean ([6]; 3.18E-05 microM): 93.1%
- EC50 ([6]; Homo sapiens, Bladder, summary Table 5, read-out: EC50): 0.25 nM
- EC50 [6, 8]: 0.25 nM
- GI50 [6, 9]: 0.872 nM
- IC50 [6, 10]: 1.59 nM
- Cell Count Activity Area [7]: 3.76
- Relative cell count (%) Mean ([7]; 1.00E+00 microM): 48.9%
- Relative cell count (%) Mean ([7]; 1.00E-01 microM): 52.1%
- Relative cell count (%) Mean ([7]; 1.00E-02 microM): 70.4%
- Relative cell count (%) Mean ([7]; 1.00E-03 microM): 78.8%
- Relative cell count (%) Mean ([7]; 1.01E-04 microM): 101.1%
- Relative cell count (%) Mean ([7]; 3.16E-01 microM): 50.7%
